According to patent US10093611B2, “Benzocycloalkenes as antifungal agents” (Bayer Intellectual Property GmbH, priority 2010, dated 2018):

What was measured:
Septoria tritici = assay: In vivo preventive test on Septoria tritici (wheat); settings: 500 ppm of active ingredient, evaluated 21 days after inoculation
Experimental: EXAMPLE G: IN VIVO PREVENTIVE TEST ON SEPTORIA TRITICI (WHEAT) Solvent: 49 parts by weight of N,N-dimethylacetamide Emulsifier: 1 part by weight of alkylaryl polyglycol ether To produce a suitable preparation of active compound, 1 part by weight of active compound or active compound combination is mixed with the stated amounts of solvent and emulsifier, and the concentrate is diluted with water to the desired concentration. To test for preventive activity, young plants are sprayed with the preparation of active compound or active compound combination at the stated rate of application. After the spray coating has dried on, the plants are sprayed with a spore suspension of Septoria tritici. The plants remain for 48 hours in an incubation cabinet at approximately 20° C. and a relative atmospheric humidity of approximately 100% and then 60 hours at approximately 15° C. in a translucent incubation cabinet at a relative atmospheric humidity of approximately 100%. The plants are placed in a greenhouse at a temperature of approximately 15° C. and a relative atmospheric humidity of approximately 80%. The test is evaluated 21 days after the inoculation. 0% means an efficacy which corresponds to that of the control, while an efficacy of 100% means that no disease is observed. Under these conditions, total protection is observed at a dose of 500 ppm of active ingredient with the following compounds from table G: […]

Sphaerotheca fuliginea = assay: In vivo preventive test on Sphaerotheca fuliginea (cucumbers); settings: 100 ppm of active ingredient, evaluated 7 days after inoculation
Experimental: EXAMPLE H: IN VIVO PREVENTIVE TEST ON SPHAEROTHECA FULIGINEA (CUCUMBERS) Solvent: 24.5 parts by weight of acetone • 24.5 parts by weight of N,N-dimethylacetamide Emulsifier: 1 part by weight of alkylaryl polyglycol ether To produce a suitable preparation of active compound, 1 part by weight of active compound is mixed with the stated amounts of solvent and emulsifier, and the concentrate is diluted with water to the desired concentration. To test for protect activity, young plants are sprayed with the preparation of active compound at the stated rate of application. After the spray coating has dried on, the plants are inoculated with an aqueous spore suspension of Sphaerotheca fuliginea. The plants are then placed in a greenhouse at approximately 23° C. and a relative atmospheric humidity of approximately 70%. The test is evaluated 7 days after the inoculation. 0% means an efficacy which corresponds to that of the untreated control, while an efficacy of 100% means that no disease is observed. Under these conditions, high (at least 90%) to total protection is observed at a dose of 100 ppm of active ingredient with the following compounds from table H: Under the same conditions, high protection (greater than 80%) is observed at a dose of 500 ppm of active ingredient with compound 7, whereas poor protection (less than 20%) is observed with the isosteric analogue compound CMP2 claimed in WO-2009/016218 as in table H2.

[1] = system: Fusarium nivale (var. majus); assay: In vivo curative test on Fusarium nivale (var. majus) (wheat); settings: 500 ppm of active ingredient, evaluated 5 days after inoculation
Experimental: EXAMPLE C: IN VIVO CURATIVE TEST ON FUSARIUM NIVALE (VAR. MAJUS) (WHEAT) Solvent: 49 parts by weight of N,N-dimethylacetamide Emulsifier: 1 part by weight of alkylaryl polyglycol ether To produce a suitable preparation of active compound, 1 part by weight of active compound or active compound combination is mixed with the stated amounts of solvent and emulsifier, and the concentrate is diluted with water to the desired concentration. To test for curative activity, young plants are slightly injured by using a sandblast and afterwards they are sprayed with a conidia suspension of Fusarium nivale (var. majus) and placed for 24 hours in a greenhouse under a translucent incubation cabinet at a temperature of approximately 10° C. and a relative atmospheric humidity of approximately 100% and are subsequently sprayed with the preparation of active compound at the stated rate of application. After the spray coating has been dried, the plants remain in the greenhouse under translucent incubation cloches at a temperature of approximately 10° C. and a relative atmospheric humidity of approximately 100%. The test is evaluated 5 days after the inoculation. 0% means an efficacy which corresponds to that of the untreated control, while an efficacy of 100% means that no disease is observed. Under these conditions, total protection is observed at a dose of 500 ppm of active ingredient with the following compounds from table C: […]

Venturia inaequalis = assay: In vivo preventive test on Venturia inaequalis (apples); settings: 100 ppm of active ingredient, evaluated 10 days after inoculation
Experimental: (§1) EXAMPLE J: IN VIVO PREVENTIVE TEST ON VENTURIA INAEQUALIS (APPLES) Solvent: 24.5 parts by weight of acetone • 24.5 parts by weight of N,N-dimethylacetamide Emulsifier: 1 part by weight of alkylaryl polyglycol ether To produce a suitable preparation of active compound, 1 part by weight of active compound is mixed with the stated amounts of solvent and emulsifier, and the concentrate is diluted with water to the desired concentration. To test for preventive activity, young plants are sprayed with the preparation of active compound at the stated rate of application. After the spray coating has dried on, the plants are inoculated with an aqueous conidia suspension of the causal agent of apple scab (Venturia inaequalis) and then remain for 1 day in an incubation cabinet at approximately 20° C. and a relative atmospheric humidity of 100%. The plants are then placed in a greenhouse at approximately 21° C. and a relative atmospheric humidity of approximately 90%. The test is evaluated 10 days after the inoculation. 0% means an efficacy which corresponds to that of the untreated control, while an efficacy of 100% means that no disease is observed. Under these conditions, total protection is observed at a dose of 100 ppm of active ingredient with the following compounds from table J: […]

Uromyces appendiculatus = assay: In vivo preventive test on Uromyces appendiculatus (beans); settings: 100 ppm of active ingredient, evaluated 10 days after inoculation
Experimental: as §1, with “I:” for “J:”, “UROMYCES APPENDICULATUS (BEANS)” for “VENTURIA INAEQUALIS (APPLES)”, “spore” for “conidia”, “bean rust (Uromyces appendiculatus)” for “apple scab (Venturia inaequalis)”, “conditions, excellent (at least 95%) to” for “conditions,”

`CC(C1Cc2ccccc2C1)N(C(=O)c1c(C(F)F)nn(C)c1F)C1CC1` (stereo not shown) [Example 14, N-cyclopropyl-3-(difluoromethyl)-N-[1-(indan-2-yl)ethyl]-5-fluoro-1-methyl-1H-pyrazole-4-carboxamide] was tested, and the Efficacy (Septoria tritici) was 100%, the Efficacy (Sphaerotheca fuliginea) was 100% and the Efficacy [1] was 100%. The Efficacy (Venturia inaequalis) was 100%.
`CC(C1CCc2ccccc2C1)N(C(=O)c1c(C(F)F)nn(C)c1F)C1CC1` (stereo not shown) [Example 16] gave an Efficacy (Septoria tritici) of 100%, an Efficacy (Sphaerotheca fuliginea) of 100% and an Efficacy [1] of 100%. The Efficacy (Venturia inaequalis) was 100%.
With `CCc1nn(C)c(F)c1C(=O)N(C1CC1)C(C)C1Cc2ccccc2C1` (stereo not shown) [Example 12] the Efficacy (Septoria tritici) was 100%, the Efficacy (Sphaerotheca fuliginea) was 95% and the Efficacy (Uromyces appendiculatus) was 100%. It also gave an Efficacy [1] of 100% and an Efficacy (Venturia inaequalis) of 100%.
`Cc1nn(C)c(F)c1C(=O)N(C1CC1)C(C)C1Cc2ccccc2C1` (stereo not shown) [Example 11] showed an Efficacy (Septoria tritici) of 100%, an Efficacy (Sphaerotheca fuliginea) of 92% and an Efficacy (Uromyces appendiculatus) of 100%. For the same compound, the Efficacy [1] was 100% and the Efficacy (Venturia inaequalis) was 100%.
`CC(C1Cc2ccccc2C1)N(C(=O)c1cn(C)nc1C(F)F)C1CC1` (stereo not shown) [Example 13] showed an Efficacy (Septoria tritici) of 100%, an Efficacy (Sphaerotheca fuliginea) of 95% and an Efficacy (Uromyces appendiculatus) of 98%. It also gave an Efficacy [1] of 100% and an Efficacy (Venturia inaequalis) of 100%.
With `CCC(C1CCc2ccccc2C1)N(C(=O)c1c(C(F)F)nn(C)c1F)C1CC1` (stereo not shown) [Example 17] the Efficacy (Septoria tritici) was 100% and the Efficacy [1] was 100%.
